In PubChem BioAssay AID1963451 (Molecular Pharmacology Branch, DTP, NCI, 2024):
Several values for one entry are separate records, joined by “and”; a condition that tells them apart may be missing. Equal values may be shown once.

Tested on: 521955-158-R6-J3-PDC complex spheroid growth, % test/control
Test: Anticancer human tumor 521955-158-R6-J3-PDC patient-derived pancreatic carcinoma cell line growth inhibition [Asc]
Settings: for viability, T/C: stronger effect = lower value
Description: Multicellular complex tumor spheroid response to apoptosis pathway targeting inhibitors Alrizomadlin, Pelcitoclax, and Dasminapant in combination with a variety of drugs and investigational agents in selected tumor cell lines
The MDM2 inhibitor alrizomadlin, the Bcl-2/Bcl-xL inhibitor pelcitoclax, and the IAPs inhibitor dasminapant were evaluated both individually and in combination with standard of care and investigational anticancer small molecules within a complex spheroid model of solid tumors. . Complex spheroids include a stromal component modeled by human endothelial cells (HUVEC) and fibroblasts modeled by human mesenchymal stem cells (MSCs). The concentration ranges selected for each drug and investigational agent were based upon clinically achievable concentrations if the clinical Cmax of the agent was known.
Compounds. The drugs and investigational agents: alrizomadlin (APG-115; NSC831270), pelcitoclax (APG-1252; NSC835773), dasminapant (APG-1387;NSC834197), TAK-243 (NSC785004), copanlisib (NSC809693), olaparib (NSC753686), talazoparib (NSC767125), cobimetinib (NSC 768068), eltanexor (KPT-8602, NSC 794443), abemaciclib (NSC 768073), sotorasib (NSC818433), adagrasib (NSC 831453), MRTX-1133 (NSC 836407), Iadademestat (ORY1001, NSC 806812), and RMC-4630 (NSC839698), were obtained from the NCI Developmental Therapeutics Program Chemical Repository. The FDA-approved anticancer drug set is available from the Developmental Therapeutics Program at https://dtp.cancer.gov/organization/dscb/obtaining/available plates.htm. […] The stock solutions were prepared in dimethyl sulfoxide (DMSO, Sigma-Aldrich, St. Louis, MO, cat. D2650) at 800-fold the tested concentration and stored at -70 degrees C prior to their use. All drugs and investigational agents were tested over a range starting from a high concentration at or near the clinical Cmax and decreasing in half-log increments. If the clinical Cmax for an agent had not been determined, the highest concentration tested was 10 microM.
The patient-derived cancer (PDC) cell lines include five colon adenocarcinomas: 186277-243-T-J2-PDC, 616215-338-R-J1-PDC, 439559-082-T-J2-PDC, 463943-066-T-J2-PDC, and 519858-162-T-J1-PDC; three pancreatic carcinomas: 323965-272-R-J2-PDC, 521955-158-R6-J3-PDC, and 521955-158-R2-J5-PDC; two uterine sarcomas: 327498-152-R-J2-PDC and 993429-296-R-J1-PDC; two rhabdomyosarcomas: 755483-174-R-J1-PDC and 772245-204-R-J1-PDC; two soft tissue sarcomas: 126254-015-R-J1-PDC and 494315-158-R-J1-PDC; two malignant fibrous histiocytomas: 317291-083-R-J1-PDC and 596521-263-R-J1-PDC; two breast carcinomas: 171881-019-R-J1-PDC and 885512-296-R-J2-PDC; and one ovarian carcinoma: 6556581-035-R-J-PDC were obtained from the NCI PDMR, (https://pdmr.cancer.gov). The established cell lines HSSY-2 synovial sarcoma (RRID:CVCL 8719), SYO-1 synovial sarcoma (RRID:CVCL_7146), MPNST malignant peripheral neural sheath tumor were obtained from the Sloan Kettering Institute. The following established cell lines were purchased from the American Type Culture Collection (ATCC, Manassas, VA), Sor the received from the NCI repository:, PANC-1 pancreatic carcinoma (CRL-1469, RRID:CVCL_0480), OVCAR-5 ovarian carcinoma (RRID:CVCL_1628), OVCAR-8 ovarian carcinoma (RRID:CVCL_1629), , MCF-7 breast carcinoma (CRL-12584, RRID:CVCL_0031), MDA-MB-231 breast carcinoma (CRL-12532, RRID:CVCL_0062), NCI-H1876 small cell lung carcinoma (CRL-5902, RRID:CVCL_1503), NCI-H510A small cell lung carcinoma (HTB-184, RRID:CVCL_1565), NCI-H1417 (CRL-5869, RRID:CVCL_1469), and NCI-H196 small cell lung carcinoma (CRL-5823, RRID:CVCL_1509). Dr. Peter Houghton (Greehey Children's Cancer Research Institute, University of Texas Health Science Center, San Antonio, TX) provided Rh-18 rhabdomyosarcoma (RRID:CVCL_1659). Pooled donor human umbilical vein endothelial cells (HUVEC, Lonza, cat. CC-2519) and human mesenchymal stem cells (hMSC, Lonza, cat. PT-2501) were purchased from Lonza (Walkersville, MD).
Cell Culture. […]
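Further: spheroids exposed to compounds for 7 days.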
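Wherever viability, T/C is given: 100% = DMSO vehicle control wells.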

In the case of `NC1CCC(NC2CC2c2ccccc2)CC1` (stereo unspecified), the viability, T/C (compound 0.000316 µM) is reported as 104% and 94% and 98.2%, the viability, T/C (compound 0.001 µM) is reported as 124% and 120% and 99.5% and the viability, T/C (compound 0.00316 µM) is reported as 136% and 105% and 97.8%. The viability, T/C (compound 0.01 µM) was 128% and 117% and 109%, the viability, T/C (compound 0.0316 µM) was 128% and 103% and 93.2% and the viability, T/C (compound 0.1 µM) was 117% and 99.7% and 89.2%. For the same compound, the IC50 (curve of compound) was over 100 nM.
In the case of `NC1CCC(NC2CC2c2ccccc2)CC1` (stereo unspecified) + CCN1C(C(=O)NC23CCC(C(=O)O)(CC2)CC3)C(c2cccc(Cl)c2F)C2(C(=O)Nc3cc(Cl)ccc32)C12CCCCC2, the IC50 (curve of first compound, second compound 0.00949 µM) is reported as over 100 nM, the IC50 (curve of first compound, second compound 0.03 µM) is reported as over 100 nM and the IC50 (curve of first compound, second compound 0.0949 µM) is reported as over 100 nM. For the same compound, the IC50 (curve of first compound, second compound 0.3 µM) was over 100 nM, the IC50 (curve of first compound, second compound 0.949 µM) was over 100 nM and the IC50 (curve of first compound, second compound 3 µM) was over 100 nM. It also gave a viability, T/C (second compound 0.00949 µM, first compound 0.000316 µM) of 112%, a viability, T/C (second compound 0.00949 µM, first compound 0.001 µM) of 104% and a viability, T/C (second compound 0.00949 µM, first compound 0.00316 µM) of 90.5%. It also gave a viability, T/C (second compound 0.00949 µM, first compound 0.01 µM) of 105%, a viability, T/C (second compound 0.00949 µM, first compound 0.0316 µM) of 85.3% and a viability, T/C (second compound 0.00949 µM, first compound 0.1 µM) of 108%. For the same compound, the viability, T/C (second compound 0.03 µM, first compound 0.000316 µM) was 111%, the viability, T/C (second compound 0.03 µM, first compound 0.001 µM) was 106% and the viability, T/C (second compound 0.03 µM, first compound 0.00316 µM) was 100%. For the same compound, the viability, T/C (second compound 0.03 µM, first compound 0.01 µM) was 99.6%, the viability, T/C (second compound 0.03 µM, first compound 0.0316 µM) was 105% and the viability, T/C (second compound 0.03 µM, first compound 0.1 µM) was 84.7%. It also gave a viability, T/C (second compound 0.0949 µM, first compound 0.000316 µM) of 108%, a viability, T/C (second compound 0.0949 µM, first compound 0.001 µM) of 118% and a viability, T/C (second compound 0.0949 µM, first compound 0.00316 µM) of 120%. For the same compound, the viability, T/C (second compound 0.0949 µM, first compound 0.01 µM) was 127%, the viability, T/C (second compound 0.0949 µM, first compound 0.0316 µM) was 99.6% and the viability, T/C (second compound 0.0949 µM, first compound 0.1 µM) was 99.9%. It also gave a viability, T/C (second compound 0.3 µM, first compound 0.000316 µM) of 94.6%, a viability, T/C (second compound 0.3 µM, first compound 0.001 µM) of 108% and a viability, T/C (second compound 0.3 µM, first compound 0.00316 µM) of 111%. It also gave a viability, T/C (second compound 0.3 µM, first compound 0.01 µM) of 101%, a viability, T/C (second compound 0.3 µM, first compound 0.0316 µM) of 110% and a viability, T/C (second compound 0.3 µM, first compound 0.1 µM) of 102%. It also gave a viability, T/C (second compound 0.949 µM, first compound 0.000316 µM) of 101%, a viability, T/C (second compound 0.949 µM, first compound 0.001 µM) of 125% and a viability, T/C (second compound 0.949 µM, first compound 0.00316 µM) of 114%. For the same compound, the viability, T/C (second compound 0.949 µM, first compound 0.01 µM) was 105%, the viability, T/C (second compound 0.949 µM, first compound 0.0316 µM) was 113% and the viability, T/C (second compound 0.949 µM, first compound 0.1 µM) was 96%. The viability, T/C (second compound 3 µM, first compound 0.000316 µM) was 113%, the viability, T/C (second compound 3 µM, first compound 0.001 µM) was 109% and the viability, T/C (second compound 3 µM, first compound 0.00316 µM) was 128%. It also gave a viability, T/C (second compound 3 µM, first compound 0.01 µM) of 104%, a viability, T/C (second compound 3 µM, first compound 0.0316 µM) of 111% and a viability, T/C (second compound 3 µM, first compound 0.1 µM) of 88.7%.
With `C#Cc1c(F)ccc2cc(O)cc(-c3ncc4c(N5CC6CCC(C5)N6)nc(OCC56CCCN5CC(F)C6)nc4c3F)c12` (stereo unspecified) + Cc1c(S(C)(=O)=O)c(-c2cc(F)cc(N3CCN(c4ccc(NS(=O)(=O)c5ccc(NC(CCN6CCC(C(=O)OCCCP(=O)(O)O)CC6)CSc6ccccc6)c(S(=O)(=O)C(F)(F)F)c5)cc4)CC3)c2)c(-c2ccc(Cl)cc2)n1C(C)C the IC50 (curve of first compound, second compound 0.0316 µM) was under 31.6 nM, the IC50 (curve of first compound, second compound 0.1 µM) was under 31.6 nM and the IC50 (curve of first compound, second compound 0.316 µM) was under 31.6 nM. It also gave an IC50 (curve of first compound, second compound 1 µM) of under 31.6 nM, an IC50 (curve of first compound, second compound 3.16 µM) of under 31.6 nM and an IC50 (curve of first compound, second compound 10 µM) of under 31.6 nM. It also gave a viability, T/C (second compound 0.0316 µM, first compound 0.0316 µM) of 49.8%, a viability, T/C (second compound 0.0316 µM, first compound 0.1 µM) of 44.9% and a viability, T/C (second compound 0.0316 µM, first compound 0.316 µM) of 23.1%. The viability, T/C (second compound 0.0316 µM, first compound 1 µM) was 24%, the viability, T/C (second compound 0.0316 µM, first compound 3.16 µM) was 18.4% and the viability, T/C (second compound 0.0316 µM, first compound 10 µM) was 15.9%. It also gave a viability, T/C (second compound 0.1 µM, first compound 0.0316 µM) of 46.2%, a viability, T/C (second compound 0.1 µM, first compound 0.1 µM) of 31.1% and a viability, T/C (second compound 0.1 µM, first compound 0.316 µM) of 23.3%. It also gave a viability, T/C (second compound 0.1 µM, first compound 1 µM) of 18.4%, a viability, T/C (second compound 0.1 µM, first compound 3.16 µM) of 17.8% and a viability, T/C (second compound 0.1 µM, first compound 10 µM) of 17.1%. For the same compound, the viability, T/C (second compound 0.316 µM, first compound 0.0316 µM) was 31.6%, the viability, T/C (second compound 0.316 µM, first compound 0.1 µM) was 34.9% and the viability, T/C (second compound 0.316 µM, first compound 0.316 µM) was 15.9%. The viability, T/C (second compound 0.316 µM, first compound 1 µM) was 15.6%, the viability, T/C (second compound 0.316 µM, first compound 3.16 µM) was 11.6% and the viability, T/C (second compound 0.316 µM, first compound 10 µM) was 9.78%. For the same compound, the viability, T/C (second compound 1 µM, first compound 0.0316 µM) was 16.1%, the viability, T/C (second compound 1 µM, first compound 0.1 µM) was 15.3% and the viability, T/C (second compound 1 µM, first compound 0.316 µM) was 11.9%. It also gave a viability, T/C (second compound 1 µM, first compound 1 µM) of 9.24%, a viability, T/C (second compound 1 µM, first compound 3.16 µM) of 7.76% and a viability, T/C (second compound 1 µM, first compound 10 µM) of 7.16%. It also gave a viability, T/C (second compound 3.16 µM, first compound 0.0316 µM) of 12.6%, a viability, T/C (second compound 3.16 µM, first compound 0.1 µM) of 11.4% and a viability, T/C (second compound 3.16 µM, first compound 0.316 µM) of 7.77%. It also gave a viability, T/C (second compound 3.16 µM, first compound 1 µM) of 7.76%, a viability, T/C (second compound 3.16 µM, first compound 3.16 µM) of 6.82% and a viability, T/C (second compound 3.16 µM, first compound 10 µM) of 3.79%. It also gave a viability, T/C (second compound 10 µM, first compound 0.0316 µM) of 8.21%, a viability, T/C (second compound 10 µM, first compound 0.1 µM) of 6.93% and a viability, T/C (second compound 10 µM, first compound 0.316 µM) of 5%. For the same compound, the viability, T/C (second compound 10 µM, first compound 1 µM) was 5.16%, the viability, T/C (second compound 10 µM, first compound 3.16 µM) was 3.49% and the viability, T/C (second compound 10 µM, first compound 10 µM) was 3.88%.
